# Source: patent US8029795B2, “Targeted iron chelator delivery system” (Gwathmey, Inc., priority 1999, dated 2011)
# What was measured:
# [1] = al-Refaie et al. 1992; cited from earlier work
# [2] = set-up: species or system Sprague Dawley rats; details: rat, in vivo
# Source text: Sprague Dawley rats (n=130) were obtained from Charles River Laboratories and were iron overloaded by twelve week administration of iron in the feed. The rats were divided into the following groups: • (i) overloaded (O), • (ii) liposomes injected (OL), • (iii) overloaded animals with liposome entrapped desferrioxamine (OLD), and • (iv) overloaded with desferrioxamine (OD).
# All control groups were pooled as there were not significant differences between the groups of normal non-treated controls. Range for iron was 35-150 μg/gram dry weight (human assay lab). A hepatic index of 1.0 is normal and results of 1.0-1.9 are described as nonspecific iron accumulation (human standards). […] FIGS. 4 and 5 show myocardial tissue from rat with iron overload.
# [3] = background statement; cited from earlier work
Compound,"severe agranulocytosis, share of patients [1]",toxic effects in control rats [2],oral absorption [3]
Cc1c(O)c(=O)ccn1C [deferiprone],about 2%,–,–
CC(=O)N(O)CCCCCNC(=O)CCC(=O)N(O)CCCCCNC(=O)CCC(=O)N(O)CCCCCN [desferrioxamine],–,Neither liposomes nor desferrioxamine (DFO) had toxic effects,very low
